Results reported in publication PMC7251097, “Aspartate/asparagine-β-hydroxylase: a high-throughput mass spectrometric assay for discovery of small molecule inhibitors” (Scientific Reports, 2020).
Where a name gives a salt, the structure may show the parent alone. Read-outs that look alike come from different tables or passages of the source.

Target: T1, His6-AspH315–758 (human aspartate/asparagine-β-hydroxylase, AspH) (Homo sapiens, UniProt Q12797)
T1 construct: N-Terminally His6-tagged human AspH315–758 (His6-AspH315–758) was produced in E. coli BL21 (DE3) cells; made in house; host or cells: E. coli BL21 (DE3), pET-28a(+) vector
T1 sequence (Q12797 315-758): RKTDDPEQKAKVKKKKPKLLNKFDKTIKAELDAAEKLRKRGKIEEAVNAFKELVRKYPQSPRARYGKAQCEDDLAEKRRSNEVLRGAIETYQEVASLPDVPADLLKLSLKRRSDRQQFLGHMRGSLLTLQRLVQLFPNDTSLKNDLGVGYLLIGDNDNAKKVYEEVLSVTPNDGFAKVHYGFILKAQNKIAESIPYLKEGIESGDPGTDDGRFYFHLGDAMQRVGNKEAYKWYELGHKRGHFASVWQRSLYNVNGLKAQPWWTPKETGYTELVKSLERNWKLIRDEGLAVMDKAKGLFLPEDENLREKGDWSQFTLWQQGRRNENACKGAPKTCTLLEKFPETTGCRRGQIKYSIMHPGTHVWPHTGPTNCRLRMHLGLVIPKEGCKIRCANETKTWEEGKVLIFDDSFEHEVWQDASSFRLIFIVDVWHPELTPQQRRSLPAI
Assay: SPE-MS AspH inhibition assay (LOPAC screen at fixed 20 μM and IC50 dose-response), hydroxylation of cyclic peptide hFX-CP101–119
Type: biochemical

[1] = LOPAC compound at 20uM, plate 3, conversion of substrate peptide
[2] = LOPAC Plate 4, compound at 20 uM, substrate conversion
[3] = LOPAC Plate 4, compound at 20 uM, read-out: % inhibition
[4] = LOPAC compound at 20uM, plate 2, conversion of substrate peptide
[5] = LOPAC compound at 20uM, plate 2, normalised to DMSO and 2,4-PDCA controls
[6] = LOPAC compound at fixed 20 uM, plate 1, normalised to DMSO and 2,4-PDCA controls
[7] = LOPAC compound at fixed 20 uM, substrate conversion, plate 1
[8] = LOPAC compound at 20uM, plate 2, normalised to DMSO and 2,4-PDCA controls, read-out: Plate 2 (% inhibition)
[9] = read-out: Plate 2 (% inhibition)
[10] = LOPAC Plate 4, compound at 20 uM

## CCOC(=O)[C@H](CCc1ccccc1)N[C@@H](C)C(=O)N1[C@H](C(=O)O)C[C@H]2CCCC[C@@H]21 [Trandolapril]
[1]
  Plate 3 (% conversion): 36.50%

## C=CCNc1ncnc2ccc(Br)cc12 [SMER28]
[2]
  % conversion: 30.76%

## NCCCCN [Putrescine dihydrochloride]
[2]
  % conversion: 39.89%
[3]
  inhibition at 20 µM: -10%

## CN1C2CCCC1CC(NC(=O)c1nn(C)c3ccccc13)C2 (stereo not drawn) [Granisetron hydrochloride]
[2]
  % conversion: 34.30%

## N[C@@H](COP(=O)(O)O)C(=O)O [O-Phospho-L-serine]
[1]
  Plate 3 (% conversion): 35.30%

## Br.C=CCN1CCc2cc(O)c(O)cc2C(c2ccccc2)C1 (racemic) [(±)-SKF 38393, N-allyl-, hydrobromide]
  % conversion: 11.46%
20 µM
  % inhibition: 73.28%

## CNCC(O)c1ccc(O)c(O)c1.Cl (racemic) [(±)-Epinephrine hydrochloride]
[4]
  Plate 2 (% conversion): 6.18%
[5]
  Plate 2 (% inhibition): 88.94%

## Nc1ccc2c3c(cccc13)C(=O)NC2=O [4-Amino-1,8-naphthalimide]
[6]
  Plate 1 (% inhibition): -1.00%
[7]
  Plate 1 (% conversion): 36.21%

## CC(N/C(=N\C#N)Nc1ccncc1)C(C)(C)C (stereo not drawn) [Pinacidil]
[2]
  % conversion: 37.72%

## O=[N+]([O-])c1cc(O)c(O)c([N+](=O)[O-])c1 [3,5-Dinitrocatechol, reference compound]
  Plate 2 (% conversion): 2.07%
20 µM
  Plate 2 (% inhibition): 101.20%

## Cc1cccc(/C=C/c2ccccc2)n1 [SIB 1893]
[2]
  % conversion: 34.05%

## O=C1C(SCCO)=C(SCCO)C(=O)c2ccccc21 [NSC 95397]
  Plate 2 (% conversion): 23.59%
20 µM
  Plate 2 (% inhibition): 36.92%

## O=C(C1CCCCC1)N1CC(=O)N2CCc3ccccc3C2C1 (stereo not drawn) [Praziquantel]
[1]
  Plate 3 (% conversion): 41.06%

## CCOC(=O)C1=C(C)NC(C)=C(C(=O)OC)C1c1cccc([N+](=O)[O-])c1 (stereo not drawn) [Nitrendipine]
[1]
  Plate 3 (% conversion): 38.78%

## CCCCS(=O)(=O)N[C@@H](Cc1ccc(OCCCCC2CCNCC2)cc1)C(=O)O [Tirofiban hydrochloride monohydrate]
[2]
  % conversion: 29.35%

## CS(=O)(=O)O.Cn1cc(C(F)(F)F)nc1-c1ccc(OCC(O)CNCCOc2ccc(O)c(C(N)=O)c2)cc1 (stereo not drawn) [CGP 20712A methanesulfonate]
[4]
  Plate 2 (% conversion): 36.56%
[5]
  Plate 2 (% inhibition): -1.81%

## C[N+]1(C)[C@@H]2C[C@@H](OC(=O)[C@H](CO)c3ccccc3)C[C@H]1[C@@H]1O[C@@H]12 [(-)-Scopolamine methyl bromide]
  % conversion: 37.79%

## O=C(O)C(O)C(O)C(=O)O.c1cnc2cc3c(cc2n1)[C@@H]1CNC[C@H]3C1 [Varenicline tartrate]
[6]
  Plate 1 (% inhibition): 66.93%
[7]
  Plate 1 (% conversion): 13.40%

## O=C(O)Cc1c[nH]c2ccc(O)cc12 [5-Hydroxyindolacetic acid]
[5]
  Plate 2 (% inhibition): -3.79%

## CC(=O)N(O)CCCCCNC(=O)CCC(=O)N(O)CCCCCNC(=O)CCC(=O)N(O)CCCCCN [Deferoxamine mesylate, reference compound]
50 nM His6-AspH315–758, 1.0 μM hFX-CP101–119, 3 μM 2OG, 2 μM Fe(II), 50 mM HEPES pH 7.5, 20 °C, mean ± SD, n = 2 (2,4-PDCA n = 10), read-out: IC50
  IC50: 3.16 ± 0.93 µM

## CNCCCC12CCC(c3ccccc31)c1ccccc12 [Maprotiline hydrochloride]
[1]
  Plate 3 (% conversion): 42.77%

## OC[C@H]1O[C@H]([S-])[C@H](O)[C@@H](O)[C@@H]1O.[Au+] [Aurothioglucose]
  Plate 3 (% conversion): 23.41%

## Nc1nc(N)c2nc(CNc3ccc(C(=O)N[C@@H](CCC(=O)O)C(=O)O)cc3)cnc2n1 [Aminopterin]
  Plate 1 (% conversion): 36.60%
[6]
  Plate 1 (% inhibition): -2.16%

## CCN(CC)CCCC(C)Nc1c2ccc(Cl)cc2nc2ccc(OC)cc12 (stereo not drawn) [Quinacrine dihydrochloride]
[2]
  % conversion: 39.58%
[3]
  inhibition at 20 µM: -9.1%

## Br.CCCN(CCC)[C@@H]1CCc2cccc(O)c2C1 [R-(+)-8-Hydroxy-DPAT hydrobromide]
  Plate 2 (% conversion): 39.31%
[5]
  Plate 2 (% inhibition): -10.03%

## O=c1c2ccccc2[nH]c(=S)n1CCN1CCC(=C(c2ccc(F)cc2)c2ccc(F)cc2)CC1 [Diacylglycerol Kinase Inhibitor II]
[4]
  Plate 2 (% conversion): 21.33%
[8]
  inhibition at 20 µM: 43.7%

## Cl.NC[C@@H]1O[C@H](C23CC4CC(CC(C4)C2)C3)Cc2c1ccc(O)c2O [A-77636 hydrochloride]
  Plate 1 (% conversion): 15.05%
  Plate 1 (% inhibition): 62.00%

## Oc1ccc(-c2nc(-c3ccncc3)c(-c3ccc(F)cc3)[nH]2)cc1 [SB 202190]
[6]
  Plate 1 (% inhibition): -5.28%
[7]
  Plate 1 (% conversion): 37.64%

## Cc1nc2ccccn2c(=O)c1CCN1CCC(C(=O)c2ccc(F)cc2)CC1 [Pirenperone]
[2]
  % conversion: 26.88%

## CCN(CC)CCOCCOC(=O)C1(c2ccccc2)CCCC1 [Carbetapentane citrate]
[6]
  Plate 1 (% inhibition): 80.85%
[7]
  Plate 1 (% conversion): 8.72%

## CC(=O)c1ccc2c(c1)N(CCCN(C)C)c1ccccc1S2 [Acepromazine maleate]
[2]
  % conversion: 29.56%

## COc1ccc(CN(CCN(C)C)c2ccccn2)cc1 [Pyrilamine maleate]
[1]
  Plate 3 (% conversion): 36.13%

## (+)-Catechin Hydrate
[6]
  Plate 1 (% inhibition): 90.19%
[7]
  Plate 1 (% conversion): 5.58%

## CCCOc1ccccc1-c1nc2nn[nH]c2c(=O)[nH]1 [Zaprinast]
[2]
  % conversion: 35.45%
[3]
  inhibition at 20 µM: 2.99%

## CC(C)(CO)Cc1cc(C(C)(C)C)c(O)c(C(C)(C)C)c1 [CGP-7930]
[6]
  Plate 1 (% inhibition): -11.33%
[7]
  Plate 1 (% conversion): 39.68%

## COc1cc2c(cc1OC)-c1c/c(=N\c3c(C)cc(C)cc3C)n(C)c(=O)n1CC2 [Trequinsin hydrochloride]
[2]
  % conversion: 28.50%

## CC(Cc1ccc(O)cc1)NCC(O)c1cc(O)cc(O)c1 (stereo not drawn) [Fenoterol hydrobromide]
  Plate 2 (% conversion): 38.93%
[9]
  inhibition at 20 µM: -8.89%

## CCN1/C(=C/C(C)=O)Sc2ccc(OC)cc21 [TG003]
[1]
  Plate 3 (% conversion): 40.97%

## NCCc1c[nH]c2ccccc12 [Tryptamine hydrochloride]
  Plate 1 (% conversion): 34.54%
  Plate 1 (% inhibition): 3.95%

## Cn1cnc2c1c(=O)[nH]c(=O)n2C [Theobromine]
[2]
  % conversion: 26.15%

## COC(=O)C1=CO[C@@H](O)[C@@H]2C(CO)=CC[C@H]12 [Genipin]
[4]
  Plate 2 (% conversion): 36.58%
[8]
  inhibition at 20 µM: -1.85%

## O=C1CCC(N2C(=O)c3ccccc3C2=O)C(=O)N1 (racemic) [(±)-Thalidomide]
[10]
  % inhibition: -5.00%
[2]
  % conversion: 38.18%

## N=C(N)SCCc1cnc[nH]1 [Imetit dihydrobromide]
  Plate 3 (% conversion): 29.48%

## CCN1CCCC1CNC(=O)c1cc(S(N)(=O)=O)ccc1OC (racemic) [(±)-Sulpiride]
[10]
  % inhibition: -0.19%
[2]
  % conversion: 36.54%

## O=C(O)CCC(=O)O.c1ccc(C2(c3ccccc3)CC2C2=NCCN2)cc1 (stereo not drawn) [Cibenzoline succinate]
  Plate 3 (% conversion): 24.00%

## N#C/C(=C\c1ccc(O)c(O)c1)C(=O)c1ccc(O)c(O)c1 [Tyrphostin AG 538]
[2]
  % conversion: 29.27%

## CC(C)Oc1cccnc1N(C)C1CCN(Cc2ccccc2)CC1.O=C(O)/C=C\C(=O)O [U-101958 maleate]
[2]
  % conversion: 35.76%

## CC(C[N+](C)(C)C)OC(N)=O (stereo not drawn) [Bethanechol chloride]
[6]
  Plate 1 (% inhibition): -8.85%
[7]
  Plate 1 (% conversion): 38.85%

## BMS-193885
[2]
  % conversion: 32.96%

## CCn1cc(C(=O)[O-])c(=O)c2ccc(C)nc21.[Na+] [Nalidixic acid sodium]
[1]
  Plate 3 (% conversion): 26.41%

## O=C(O)CCCCC1CCSS1 (racemic) [(±)-alpha-Lipoic Acid]
[10]
  % inhibition: 5.35%
[2]
  % conversion: 34.64%

## C[C@@H]1C(=O)NC2=Nc3cccc(Cl)c3CN21 [Quazinone]
[2]
  % conversion: 40.20%
[3]
  inhibition at 20 µM: -10.9%

## CN(C)CCC(c1ccccc1)c1ccccn1 (stereo not drawn) [Pheniramine maleate]
[2]
  % conversion: 37.25%
[3]
  inhibition at 20 µM: -2.28%

## C[N+](C)(C)CCCCCCCCCC[N+](C)(C)C.[Br-].[Br-] [Decamethonium dibromide]
  Plate 2 (% conversion): 41.52%
20 µM
  Plate 2 (% inhibition): -16.63%

## CN(C)CC[C@@H](c1ccc(Br)cc1)c1ccccn1 [(+)-Brompheniramine maleate]
[6]
  Plate 1 (% inhibition): 1.01%
[7]
  Plate 1 (% conversion): 35.53%

## CCCNC(C)C(=O)Nc1ccccc1C (stereo not drawn) [Prilocaine hydrochloride]
[2]
  % conversion: 24.92%

## OC[C@H]1NC[C@H](O)[C@@H](O)[C@@H]1O [1-Deoxynojirimycin hydrochloride]
[9]
  inhibition at 20 µM: 2.25%

## CCOC(=O)C1=C(C)NC(C)=C(C(=O)OCC)C1c1c(F)c(F)c(F)c(F)c1F [Nemadipine-A]
[1]
  Plate 3 (% conversion): 41.91%

## CCCCNc1cc(C(=O)O)cc(S(N)(=O)=O)c1Oc1ccccc1 [Bumetanide]
[6]
  Plate 1 (% inhibition): 3.08%
[7]
  Plate 1 (% conversion): 34.84%

## C[C@H](O)[C@H](O)[C@H]1CNc2nc(N)[nH]c(=O)c2N1.Cl
[2]
  % conversion: 25.86%
